Test results taken from ChEMBL document CHEMBL1201862, “PubChem BioAssay data set” (2004).
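A five-concentration, 48-hour dose response in 96-well plates underlies each endpoint, interpolated linearly between surrounding concentrations. GI50: concentration for 50% inhibition of growth.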 Active and inactive are the calls of the source. Rule as the data show it: active = GI50 up to about 1.1 µM and inactive = higher.

Assays:
Test in all cases: NCI tumour cell line growth inhibition, 48 h
[1] = tested on: NCI-H226
[2] = tested on: A549
[3] = tested on: HOP-92
[4] = tested on: OVCAR-5
[5] = tested on: M14
[6] = tested on: Hs-578T
[7] = tested on: A498
[8] = tested on: SF-295
[9] = tested on: T47D
[10] = tested on: OVCAR-4
[11] = tested on: 786-0
[12] = tested on: HT-29
[13] = tested on: HL-60
[14] = tested on: SNB-19
[15] = tested on: SK-OV-3
[16] = tested on: DU-145
[17] = tested on: SK-MEL-2
[18] = tested on: KM12
[19] = tested on: IGROV-1
[20] = tested on: OVCAR-3
[21] = tested on: SW-620
[22] = tested on: NCI-H23
[23] = tested on: TK-10
[24] = tested on: SK-MEL-28
[25] = tested on: UACC-62
[26] = tested on: U-251
[27] = tested on: ACHN
[28] = tested on: UACC-257
[29] = tested on: HCC 2998
[30] = tested on: HOP-62
[31] = tested on: BT-549
[32] = tested on: OVCAR-8
[33] = tested on: SN12C
[34] = tested on: CAKI-1
[35] = tested on: EKVX
[36] = tested on: COLO 205
[37] = tested on: MDA-MB-435
[38] = tested on: MCF7
[39] = tested on: SF-268
[40] = tested on: MDA-N
[41] = tested on: NCI/ADR-RES
[42] = tested on: SNB-75
[43] = tested on: PC-3
[44] = tested on: SF-539
[45] = tested on: HCT-116
[46] = tested on: LOX IMVI
[47] = tested on: MOLT-4
[48] = tested on: HCT-15
[49] = tested on: CCRF-CEM
[50] = tested on: RXF 393
[51] = tested on: K562
[52] = tested on: UO-31
[53] = tested on: MDA-MB-231
[54] = tested on: NCI-H522
[55] = tested on: Malme-3M
[56] = tested on: NCI-H460
[57] = tested on: RPMI-8226
[58] = tested on: SK-MEL-5

With `Cc1ccsc1/C=N/Nc1cc(C)c2cccc(C)c2n1` the GI50 [1] was > 100 µM (inactive), the GI50 [2] was > 100 µM (inactive) and the GI50 [3] was > 100 µM (inactive). The GI50 [4] was > 100 µM (inactive), the GI50 [5] was > 100 µM (inactive) and the GI50 [6] was > 100 µM (inactive). The GI50 [7] was > 100 µM (inactive), the GI50 [8] was 9.33 µM (inactive) and the GI50 [9] was > 100 µM (inactive). For the same compound, the GI50 [10] was > 100 µM (inactive), the GI50 [11] was 24.4 µM (inactive) and the GI50 [12] was 4.14 µM (inactive). The GI50 [13] was 3.78 µM (inactive), the GI50 [14] was > 100 µM (inactive) and the GI50 [15] was 84.5 µM (inactive). The GI50 [16] was > 100 µM (inactive), the GI50 [17] was > 100 µM (inactive) and the GI50 [18] was > 100 µM (inactive). The GI50 [19] was 1.6 µM (inactive), the GI50 [20] was > 100 µM (inactive) and the GI50 [21] was > 100 µM (inactive). The GI50 [22] was > 100 µM (inactive), the GI50 [23] was > 100 µM (inactive) and the GI50 [24] was > 100 µM (inactive). For the same compound, the GI50 [25] was > 100 µM (inactive), the GI50 [26] was > 100 µM (inactive) and the GI50 [27] was > 100 µM (inactive). The GI50 [28] was > 100 µM (inactive), the GI50 [29] was > 100 µM (inactive) and the GI50 [30] was > 100 µM (inactive). For the same compound, the GI50 [31] was > 100 µM (inactive), the GI50 [32] was > 100 µM (inactive) and the GI50 [33] was > 100 µM (inactive). For the same compound, the GI50 [34] was > 100 µM (inactive), the GI50 [35] was > 100 µM (inactive) and the GI50 [36] was > 100 µM (inactive). For the same compound, the GI50 [37] was > 100 µM (inactive), the GI50 [38] was 2.75 µM (inactive) and the GI50 [39] was > 100 µM (inactive). For the same compound, the GI50 [40] was > 100 µM (inactive), the GI50 [41] was > 100 µM (inactive) and the GI50 [42] was > 100 µM (inactive). For the same compound, the GI50 [43] was 4.89 µM (inactive).
With `CC(NC(=O)/C(=C/c1ccccc1O)NC(=O)c1ccccc1)C(=O)O` (configuration not stated) the GI50 [1] was 14 µM (inactive), the GI50 [2] was 43.1 µM (inactive) and the GI50 [3] was 22.2 µM (inactive). The GI50 [4] was > 100 µM (inactive), the GI50 [44] was 18.1 µM (inactive) and the GI50 [5] was 51.3 µM (inactive). The GI50 [6] was 17.4 µM (inactive), the GI50 [7] was > 100 µM (inactive) and the GI50 [8] was 21.4 µM (inactive). For the same compound, the GI50 [9] was 13.2 µM (inactive), the GI50 [10] was 40.4 µM (inactive) and the GI50 [11] was 24.9 µM (inactive). The GI50 [12] was 73.5 µM (inactive), the GI50 [45] was 33.2 µM (inactive) and the GI50 [13] was > 100 µM (inactive). The GI50 [14] was 20.6 µM (inactive), the GI50 [15] was 19.4 µM (inactive) and the GI50 [16] was 45.6 µM (inactive). For the same compound, the GI50 [18] was 16.8 µM (inactive), the GI50 [46] was 33.2 µM (inactive) and the GI50 [47] was > 100 µM (inactive). The GI50 [19] was 17.9 µM (inactive), the GI50 [48] was 24.1 µM and the GI50 [21] was > 100 µM (inactive). For the same compound, the GI50 [22] was > 100 µM (inactive), the GI50 [23] was 44.3 µM (inactive) and the GI50 [49] was > 100 µM (inactive). For the same compound, the GI50 [24] was > 100 µM (inactive), the GI50 [50] was 21.8 µM (inactive) and the GI50 [25] was 26 µM (inactive). The GI50 [26] was 50.5 µM (inactive), the GI50 [27] was 19.1 µM (inactive) and the GI50 [28] was 70 µM (inactive). For the same compound, the GI50 [51] was > 100 µM (inactive), the GI50 [29] was 9.23 µM (inactive) and the GI50 [52] was 17.5 µM (inactive). For the same compound, the GI50 [31] was 18.9 µM (inactive), the GI50 [53] was 22 µM (inactive) and the GI50 [32] was 15.7 µM (inactive). For the same compound, the GI50 [54] was 18.5 µM (inactive), the GI50 [55] was 21 µM (inactive) and the GI50 [33] was 21.6 µM (inactive). The GI50 [56] was 24.5 µM (inactive), the GI50 [57] was > 100 µM (inactive) and the GI50 [34] was 19 µM (inactive). For the same compound, the GI50 [35] was 18.8 µM (inactive), the GI50 [36] was > 100 µM (inactive) and the GI50 [37] was 27.8 µM (inactive). For the same compound, the GI50 [38] was 5.85 µM (inactive), the GI50 [39] was 15.8 µM (inactive) and the GI50 [40] was 8.13 µM (inactive). The GI50 [41] was 12.7 µM (inactive), the GI50 [58] was 55.2 µM (inactive) and the GI50 [42] was 15.4 µM (inactive).
